{"source": "patent US12577273B2", "about": "“Small molecule modulators of gut bacterial bile acid metabolism” (priority 2019, dated 2026)", "key": {"[1]": {"system": "three Gram negative and three Gram positive strains of human gut bacteria", "experiment": "Growth (OD600) and cell viability (CFU/mL) of the six gut bacterial strains", "conditions": "100 μM inhibitor"}, "[2]": {"system": "B. theta cultures", "experiment": "BSH inhibition in growing B. theta cultures, single substrate (GUDCA or TUDCA)", "format": "cell-based, Bacteroides thetaiotaomicron", "conditions": "10 μM inhibitor, 100 μM GUDCA"}, "[3]": {"system": "B. adolescentis", "experiment": "Inhibitor screen in bacteria, B. adolescentis culture", "format": "cell-based, Bifidobacterium adolescentis L2-32", "conditions": "FIG. 2c, 100 μM inhibitor, 100 μM bile acid pool, 21 h, replicates 1-3"}, "[4]": {"system": "B. vulgatus", "experiment": "Inhibitor screen in bacteria, B. vulgatus culture", "format": "cell-based, Bacteroides vulgatus ATCC 8482", "conditions": "FIG. 2c, 100 μM inhibitor, 100 μM bile acid pool, 21 h, replicates 1-3", "experimental": "Bacterial Culturing. All bacterial strains were cultured at 37° C. in Cullen-Haiser Gut (CHG) media (which consists of brain heart infusion media (Bacto™ BHI, BD) supplemented with 1% BBL vitamin K1-hemin solution (BD), 1% trace minerals solution (ATCC), 1% trace vitamins solution (ATCC), 5% fetal bovine serum (Hyclone), 1 g/L cellubiose, 1 g/L maltose, and 1 g/L fructose) or BHI^+ (Bacto™ BHI, BD, supplemented with 5 mg/L hemin, and 2.5 uL/L Vitamin K1). All strains were grown under anaerobic conditions in a anaerobic chamber (Coy Lab Products Airlock) with a gas mix of 5% hydrogen and 20% carbon dioxide nitrogen. Escherichia coli was grown aerobically at 37° C. in LB medium supplemented with ampicillin to select for the pET21b plasmid.\nInhibitor Screen in Bacteria. Bacterial cultures were diluted to OD600 of 0.1 in 4 mL BHI^+, containing 100 μM taurine conjugated bile acid pool 100 μM inhibitors. […] After 21 h, serial dilutions were plated on BHI^+ agar to determine cell viability (CFU/mL). […] The cultures were spun down in a centrifuge at 2,500 g for 5 mins to obtain better separation. The organic layer was then removed and the aqueous layer was extracted again using 2 mL of ethyl acetate."}, "[5]": {"system": "B. theta BSH KO strain", "experiment": "Incubation with BSH-deleted B. theta strain", "conditions": "100 μM inhibitor"}, "[6]": {"molecular_target": "T1, B. longum BSH (Bifidobacterium longum, UniProt Q9KK62)", "T1 sequence (Q9KK62 1-317)": "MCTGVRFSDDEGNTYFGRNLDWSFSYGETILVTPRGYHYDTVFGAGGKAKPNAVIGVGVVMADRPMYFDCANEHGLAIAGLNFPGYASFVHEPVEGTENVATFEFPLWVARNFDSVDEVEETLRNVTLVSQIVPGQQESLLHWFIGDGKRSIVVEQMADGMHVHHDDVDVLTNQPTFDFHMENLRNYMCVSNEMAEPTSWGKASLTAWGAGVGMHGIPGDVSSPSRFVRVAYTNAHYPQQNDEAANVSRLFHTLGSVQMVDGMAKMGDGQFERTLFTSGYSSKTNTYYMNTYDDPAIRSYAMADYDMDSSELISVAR", "experiment": "Inhibitor screen using rBSH, B. longum BSH (UPLC-MS % deconjugation)", "format": "biochemical, Bifidobacterium longum SBT2928", "design": "His6 (C); made in house; host or cells: Escherichia coli (as for the B. theta enzyme)", "conditions": "100 μM inhibitor; 2 h, 5 h and 21 h timepoints", "experimental": "B. longum rBSH. Recombinant BSH from B. longum SBT2928 was expressed and purified as above, except 0.25 mM IPTG was used for protein expression and 1 mM TCEP for protein purification.\nInhibitor Screen Using rBSHs."}, "[7]": {"system": "B. theta", "experiment": "Determination of IC50 of compound 7 in B. theta cultures"}, "[8]": {"system": "BSH activity in conventional mouse feces", "experiment": "Screen of inhibitors in conventional mouse feces", "format": "biochemical", "conditions": "20 μM inhibitor, 30 min, then GCDCA-d4 100 μM, 18 hours", "experimental": "Screen of Inhibitors in Conventional Mouse Feces. […] The tubes were then frozen in dry ice for 5 mins and upon thawing were diluted with an equal volume of methanol. […] The supernatant was removed into a clean eppendorf tube and centrifuged again. […] The concentration of product detected from these assays was reported directly."}, "[9]": {"system": "three Gram negative and three Gram positive strains of human gut bacteria", "experiment": "BSH inhibition in growing cultures of six gut bacterial strains (overall statements)", "format": "cell-based", "conditions": "100 μM inhibitor, 100 μM conjugated bile acid mixture"}, "[10]": {"molecular_target": "B. theta BSH (Bacteroides thetaiotaomicron, UniProt Q8A600)", "experiment": "Mass spectrometry analysis for identifying labeled residue on BSH", "format": "binding", "experimental": "Mass Spectrometry Analysis for Identifying Labeled Residue on BSH. BSH protein was incubated with DMSO or a 10-fold molar excess of inhibitor 7 for 2 h at room temperature. Reactions were then analyzed by LC-MS using a Shimadzu LC and autosampler system (Shimadzu, Marlborough, MA) interfaced to an LTQ ion trap mass spectrometer (ThermoFisher Scientific, San Jose, CA).\nTo determine the site of modification, compound 7 modified protein was analyzed as described above, except that the LC system was interfaced to an Orbitrap Lumos Mass Spectrometer (ThermoFisher Scientific). […] Ion assignments were performed using mzStudio software.^50"}, "[11]": {"system": "differentiated Caco-2 cells"}, "[12]": {"system": "L. plantarum", "experiment": "Inhibitor screen in bacteria, L. plantarum culture", "format": "cell-based, Lactobacillus plantarum WCFS1", "conditions": "FIG. 2c, L. plantarum culture; 100 μM inhibitor, 100 μM bile acid pool, 21 h; replicates 1-3"}}, "note": "“And” between values parts separate entries of the source, which are not always exact repeats. Equal entries are not always repeated. “Also recorded” adds a separate entry of the source. Where two headings read alike, the source gives them in different places."}
{"molecule": "C[C@H](CCC(=O)CF)[C@H]1CC[C@H]2[C@@H]3[C@H](O)C[C@@H]4C[C@H](O)CC[C@]4(C)[C@H]3CC[C@]12C", "note": "[Compound 7]", "values": [{"measurement": "effect on bacterial cell viability (CFU/mL, plated at 21 h)", "setting": "[1]", "value": "not bactericidal; also recorded: did not significantly affect the cell viability of the majority of the tested strains"}, {"measurement": "effect on bacterial growth (OD600 at 24 hours)", "setting": "[1]", "value": "did not significantly impact the growth"}, {"measurement": "effect on bacterial growth (OD600 at 24 hours)", "setting": "[1]; listed as compound 7", "value": "not bactericidal"}, {"measurement": "deconjugation of GUDCA in growing B. theta cultures (in words)", "setting": "[2]", "value": "nearly complete inhibition of deconjugation"}, {"measurement": "% deconjugation of TCA", "setting": "[3]", "value": "2.88% and 3.09% and 2.93%"}, {"measurement": "% deconjugation of TDCA", "setting": "[3]", "value": "10.43% and 6.05% and 7.35%"}, {"measurement": "% deconjugation of TUDCA", "setting": "[3]", "value": "1.54% and 1.26% and 1.21%"}, {"measurement": "% deconjugation of TβMCA", "setting": "[3]", "value": "0.34% and 0.37% and 0.73%"}, {"measurement": "% deconjugation of TCA", "setting": "[4]", "value": "0.68% and 0.64% and 0.47%"}, {"measurement": "% deconjugation of TDCA", "setting": "[4]", "value": "0.90% and 0.17% and 0.81%"}, {"measurement": "% deconjugation of TUDCA", "setting": "[4]", "value": "1.90% and 3.62% and 0.80%"}, {"measurement": "% deconjugation of TβMCA", "setting": "[4]", "value": "1.58% and 0.41% and 0.65%"}, {"measurement": "bactericidal effect on BSH-deleted B. theta (CFUs after 24 h)", "setting": "[5]", "value": "not found to be bactericidal"}, {"measurement": "effect on bile acid pools with B. theta BSH KO strain", "setting": "[5]; 100 μM taurine conjugated pool, 24 h", "value": "did not alter bile acid pools"}, {"measurement": "inhibition of B. longum BSH (in words)", "setting": "[6]", "value": "most potent inhibitor; also recorded: most active inhibitor"}, {"measurement": "IC50", "setting": "[7]; Bacteroides thetaiotaomicron, 48 h, read-out: IC50 against B. theta (growing culture), 100 μM TUDCA, 48 h anaerobic growth", "value": 913, "unit": "nM"}, {"measurement": "IC50", "setting": "[7]; read-out: IC50 against B. theta (growing culture), 100 μM TUDCA, 48 h anaerobic growth", "value": 1070, "unit": "nM"}, {"measurement": "BSH activity in resuspended conventional mouse feces (in words)", "setting": "[8]", "value": "completely inhibited BSH activity in feces"}, {"measurement": "BSH activity in resuspended conventional mouse feces (in words)", "setting": "[8]; listed as compound 7", "value": "effectively inhibited BSH activity; also recorded: completely inhibited the BSH activity in feces; also recorded: almost completely inhibited BSH activity"}, {"measurement": "deconjugation / BSH inhibition in cultures of the six bacterial strains (in words)", "setting": "[9]", "value": "almost no deconjugation"}, {"measurement": "deconjugation / BSH inhibition in cultures of the six bacterial strains (in words)", "setting": "[9]; listed as compound 7", "value": "almost no detectable deconjugation"}, {"measurement": "modified residue of B. theta BSH (top-down MS)", "setting": "[10]; 10-fold excess of compound 7", "value": "Cys2"}, {"measurement": "shift in mass of BSH after treatment", "setting": "[10]; 10-fold excess of compound 7, 2 h", "value": 388, "unit": "Da"}, {"measurement": "shift in the intact mass of the protein", "setting": "[10]; incubation of B. theta BSH with compound 7", "value": 388, "unit": "mass units"}, {"measurement": "epithelial monolayer integrity (passive diffusion of 4 kDa FITC-dextran)", "setting": "[11]", "value": "did not compromise epithelial monolayer integrity"}, {"measurement": "% deconjugation of TCA", "setting": "[12]", "value": "0.77% and 0.93% and 1.02%"}, {"measurement": "% deconjugation of TDCA", "setting": "[12]", "value": "3.22% and 0.62% and 0.64%"}, {"measurement": "% deconjugation of TUDCA", "setting": "[12]", "value": "1.46% and 0.97% and 1.32%"}, {"measurement": "% deconjugation of TβMCA", "setting": "[12]", "value": "0.15% and 0.49% and 0.62%"}]}
